Source: the NIST ThermoML archive (doi:10.1021/acs.jced.7b00646)

Assay: xn = mol fraction of the nth substance listed
Conditions: 318.15 K, 101.3 kPa, Liquid, Alternating current cell with electrodes

CCCC[n+]1ccn(C)c1.O=S(=O)([N-]S(=O)(=O)C(F)(F)F)C(F)(F)F + COC(=O)OC
Conditions	electrical conductivity [S/m]
x1 = 0.05	0.587
x1 = 0.1	1.36
x1 = 0.2001	2.12
x1 = 0.2999	2.14
x1 = 0.4	1.93
x1 = 0.5002	1.68
x1 = 0.5998	1.42
x1 = 0.7	1.23
x1 = 0.8	1.08
x1 = 0.8999	0.965
x1 = 1	0.877

CC1COC(=O)O1 (centres undefined) [4-methyl-1,3-dioxolan-2-one] + CCCC[n+]1ccn(C)c1.O=S(=O)([N-]S(=O)(=O)C(F)(F)F)C(F)(F)F
Conditions	electrical conductivity [S/m]
x2 = 0.05	1.08
x2 = 0.1	1.51
x2 = 0.2001	1.75
x2 = 0.2999	1.68
x2 = 0.4	1.53
x2 = 0.5002	1.36
x2 = 0.5998	1.224
x2 = 0.7	1.114
x2 = 0.8	1.009
x2 = 0.8999	0.924

CCCC[n+]1ccn(C)c1.O=S(=O)([N-]S(=O)(=O)C(F)(F)F)C(F)(F)F + O=C1CCCO1
Conditions	electrical conductivity [S/m]
x1 = 1	0.877

O=C1OCCO1 [ethylene carbonate] + CCCC[n+]1ccn(C)c1.O=S(=O)([N-]S(=O)(=O)C(F)(F)F)C(F)(F)F
Conditions	electrical conductivity [S/m]
x2 = 0.05	1.36
x2 = 0.1	1.87
x2 = 0.2001	2.06
x2 = 0.2999	1.908
x2 = 0.4	1.7
x2 = 0.5002	1.504
x2 = 0.5998	1.313
x2 = 0.7	1.17
x2 = 0.8	1.07
x2 = 0.8999	0.965

CCCC[n+]1ccn(C)c1.O=S(=O)([N-]S(=O)(=O)C(F)(F)F)C(F)(F)F + CC1COC(=O)O1
Conditions	electrical conductivity [S/m]
x1 = 1	0.877

CCCC[n+]1ccn(C)c1.O=S(=O)([N-]S(=O)(=O)C(F)(F)F)C(F)(F)F + O=C1OCCO1
Conditions	electrical conductivity [S/m]
x1 = 1	0.877

O=C1CCCO1 [γ-butyrolactone] + CCCC[n+]1ccn(C)c1.O=S(=O)([N-]S(=O)(=O)C(F)(F)F)C(F)(F)F
Conditions	electrical conductivity [S/m]
x2 = 0.05	1.43
x2 = 0.1	1.95
x2 = 0.2001	2.13
x2 = 0.2999	1.96
x2 = 0.4	1.72
x2 = 0.5002	1.506
x2 = 0.5998	1.307
x2 = 0.7	1.16
x2 = 0.8	1.03
x2 = 0.8999	0.937
